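In this assay, cells in 96-well plates receive the compound at five concentrations for 48 hours. Endpoints are linearly interpolated between the surrounding concentrations. TGI marks complete inhibition of growth.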
What was measured:
Assay in all cases: growth of human tumour cells (NCI), 48 h
SW-620 colon = system: SW-620 colon
UACC-62 melanoma = system: UACC-62 melanoma
PC-3 prostate = system: PC-3 prostate
HOP-92 NSCLC = system: HOP-92 NSCLC
CCRF-CEM leukemia = system: CCRF-CEM leukemia
RPMI-8226 leukemia = system: RPMI-8226 leukemia
IGROV1 ovarian = system: IGROV1 ovarian
MOLT-4 leukemia = system: MOLT-4 leukemia
NCI-H522 lung = system: NCI-H522 lung
M14 melanoma = system: M14 melanoma
SK-OV-3 ovarian = system: SK-OV-3 ovarian
K-562 leukemia = system: K-562 leukemia
UACC-257 melanoma = system: UACC-257 melanoma
CAKI-1 renal = system: CAKI-1 renal
BT-549 breast = system: BT-549 breast
MDA-MB-435 = system: MDA-MB-435
ACHN renal = system: ACHN renal
NCI/ADR-RES ovarian = system: NCI/ADR-RES ovarian
UO-31 renal = system: UO-31 renal
A549 NSCLC = system: A549 NSCLC
KM12 colon = system: KM12 colon
OVCAR-5 ovarian = system: OVCAR-5 ovarian
A498 renal = system: A498 renal
OVCAR-3 ovarian = system: OVCAR-3 ovarian
786-0 renal = system: 786-0 renal
NCI-H23 lung = system: NCI-H23 lung
MCF7 breast = system: MCF7 breast
HT29 colon = system: HT29 colon
DU-145 prostate = system: DU-145 prostate
HL-60(TB) leukemia = system: HL-60(TB) leukemia
EKVX NSCLC = system: EKVX NSCLC
TK-10 renal = system: TK-10 renal
NCI-H460 lung = system: NCI-H460 lung
OVCAR-4 ovarian = system: OVCAR-4 ovarian
SR leukemia = system: SR leukemia
MDA-N = system: MDA-N
NCI-H226 lung = system: NCI-H226 lung
LOX IMVI melanoma = system: LOX IMVI melanoma
SK-MEL-5 melanoma = system: SK-MEL-5 melanoma
MALME-3M melanoma = system: MALME-3M melanoma
HS 578T breast = system: HS 578T breast
SF-295 CNS = system: SF-295 CNS
U251 CNS = system: U251 CNS
SK-MEL-28 melanoma = system: SK-MEL-28 melanoma
HCT-15 colon = system: HCT-15 colon
OVCAR-8 ovarian = system: OVCAR-8 ovarian
SNB-19 CNS = system: SNB-19 CNS
MDA-MB-231 breast = system: MDA-MB-231 breast
HCC-2998 colon = system: HCC-2998 colon
COLO 205 colon = system: COLO 205 colon
HCT-116 colon = system: HCT-116 colon
T-47D breast = system: T-47D breast
HOP-62 NSCLC = system: HOP-62 NSCLC
SNB-75 CNS = system: SNB-75 CNS
SN12C renal = system: SN12C renal
SF-268 CNS = system: SF-268 CNS

In the case of `Cc1c2n(c3ccccc13)S(=O)(=O)c1ccccc1-2`, the TGI (SW-620 colon) is reported as > 100 µM, the TGI (UACC-62 melanoma) is reported as > 100 µM and the TGI (PC-3 prostate) is reported as 61.3 µM. For the same molecule, the TGI (HOP-92 NSCLC) was 73.6 µM, the TGI (CCRF-CEM leukemia) was > 100 µM and the TGI (RPMI-8226 leukemia) was > 100 µM. For the same molecule, the TGI (IGROV1 ovarian) was > 100 µM, the TGI (MOLT-4 leukemia) was > 100 µM and the TGI (NCI-H522 lung) was > 100 µM. The TGI (M14 melanoma) was > 100 µM, the TGI (SK-OV-3 ovarian) was 31.6 µM and the TGI (K-562 leukemia) was > 100 µM. The TGI (UACC-257 melanoma) was > 100 µM, the TGI (CAKI-1 renal) was 27.4 µM and the TGI (BT-549 breast) was > 100 µM. For the same molecule, the TGI (MDA-MB-435) was > 100 µM, the TGI (ACHN renal) was 43 µM and the TGI (NCI/ADR-RES ovarian) was > 100 µM. For the same molecule, the TGI (UO-31 renal) was 41.6 µM, the TGI (A549 NSCLC) was > 100 µM and the TGI (KM12 colon) was > 100 µM. For the same molecule, the TGI (OVCAR-5 ovarian) was > 100 µM, the TGI (A498 renal) was 27.4 µM and the TGI (OVCAR-3 ovarian) was > 100 µM. The TGI (786-0 renal) was 22.7 µM, the TGI (NCI-H23 lung) was > 100 µM and the TGI (MCF7 breast) was > 100 µM. The TGI (HT29 colon) was 35.6 µM, the TGI (DU-145 prostate) was > 100 µM and the TGI (HL-60(TB) leukemia) was > 100 µM. The TGI (EKVX NSCLC) was 35.6 µM, the TGI (TK-10 renal) was 58.2 µM and the TGI (NCI-H460 lung) was > 100 µM. For the same molecule, the TGI (OVCAR-4 ovarian) was > 100 µM, the TGI (SR leukemia) was > 100 µM and the TGI (MDA-N) was > 100 µM. The TGI (NCI-H226 lung) was > 100 µM, the TGI (LOX IMVI melanoma) was > 100 µM and the TGI (SK-MEL-5 melanoma) was > 100 µM. For the same molecule, the TGI (MALME-3M melanoma) was > 100 µM, the TGI (HS 578T breast) was 54.8 µM and the TGI (SF-295 CNS) was 53.2 µM. For the same molecule, the TGI (U251 CNS) was 37.9 µM, the TGI (SK-MEL-28 melanoma) was > 100 µM and the TGI (HCT-15 colon) was > 100 µM. For the same molecule, the TGI (OVCAR-8 ovarian) was 60.1 µM, the TGI (SNB-19 CNS) was 46.9 µM and the TGI (MDA-MB-231 breast) was 39.4 µM. For the same molecule, the TGI (HCC-2998 colon) was > 100 µM, the TGI (COLO 205 colon) was > 100 µM and the TGI (HCT-116 colon) was > 100 µM.
`O=C1c2c(O)cc(O)cc2C(C2OC(CO)C(O)C(O)C2O)c2cc(CO)cc(O)c21` (stereo unspecified) was tested, and the TGI (T-47D breast) was > 100 µM, the TGI (SW-620 colon) was > 100 µM and the TGI (UACC-62 melanoma) was > 100 µM. For the same molecule, the TGI (PC-3 prostate) was > 100 µM, the TGI (HOP-92 NSCLC) was > 100 µM and the TGI (RPMI-8226 leukemia) was > 100 µM. For the same molecule, the TGI (IGROV1 ovarian) was > 100 µM, the TGI (MOLT-4 leukemia) was > 100 µM and the TGI (M14 melanoma) was > 100 µM. The TGI (SK-OV-3 ovarian) was > 100 µM, the TGI (K-562 leukemia) was > 100 µM and the TGI (UACC-257 melanoma) was > 100 µM. The TGI (BT-549 breast) was > 100 µM, the TGI (MDA-MB-435) was > 100 µM and the TGI (ACHN renal) was > 100 µM. The TGI (NCI/ADR-RES ovarian) was > 100 µM, the TGI (UO-31 renal) was > 100 µM and the TGI (A549 NSCLC) was > 100 µM. For the same molecule, the TGI (OVCAR-5 ovarian) was > 100 µM, the TGI (A498 renal) was > 100 µM and the TGI (OVCAR-3 ovarian) was > 100 µM. For the same molecule, the TGI (786-0 renal) was > 100 µM, the TGI (NCI-H23 lung) was > 100 µM and the TGI (MCF7 breast) was > 100 µM. The TGI (HT29 colon) was > 100 µM, the TGI (DU-145 prostate) was > 100 µM and the TGI (HL-60(TB) leukemia) was > 100 µM. The TGI (EKVX NSCLC) was > 100 µM, the TGI (TK-10 renal) was > 100 µM and the TGI (NCI-H460 lung) was > 100 µM. For the same molecule, the TGI (OVCAR-4 ovarian) was > 100 µM, the TGI (SR leukemia) was > 100 µM and the TGI (MDA-N) was > 100 µM. The TGI (NCI-H226 lung) was > 100 µM, the TGI (SK-MEL-5 melanoma) was > 100 µM and the TGI (MALME-3M melanoma) was > 100 µM. For the same molecule, the TGI (HOP-62 NSCLC) was > 100 µM, the TGI (SF-295 CNS) was > 100 µM and the TGI (U251 CNS) was > 100 µM. The TGI (SK-MEL-28 melanoma) was > 100 µM, the TGI (HCT-15 colon) was > 100 µM and the TGI (OVCAR-8 ovarian) was > 100 µM. For the same molecule, the TGI (SNB-19 CNS) was > 100 µM, the TGI (MDA-MB-231 breast) was > 100 µM and the TGI (SNB-75 CNS) was 54.9 µM. The TGI (SN12C renal) was > 100 µM, the TGI (HCC-2998 colon) was > 100 µM and the TGI (COLO 205 colon) was > 100 µM. The TGI (SF-268 CNS) was > 100 µM and the TGI (HCT-116 colon) was > 100 µM.

Source: PubChem BioAssay (NCI)
